# Patent US5428031A, “Methods of treating cardiac arrhythmia” (priority 1993, dated 1995)
# Legend:
# [1] = biological target: T1, IKr (rapidly activating delayed rectifier K+ current) (Cavia porcellus, UniProt O08703); assay: voltage clamp measurement of IKr block in isolated guinea pig ventricular myocytes; format: cell-based
# T1 construct: Guinea pig ventricular myocytes were isolated; endogenous in cells; host or cells: isolated guinea pig ventricular myocytes
# T1 sequence (O08703 1-1294): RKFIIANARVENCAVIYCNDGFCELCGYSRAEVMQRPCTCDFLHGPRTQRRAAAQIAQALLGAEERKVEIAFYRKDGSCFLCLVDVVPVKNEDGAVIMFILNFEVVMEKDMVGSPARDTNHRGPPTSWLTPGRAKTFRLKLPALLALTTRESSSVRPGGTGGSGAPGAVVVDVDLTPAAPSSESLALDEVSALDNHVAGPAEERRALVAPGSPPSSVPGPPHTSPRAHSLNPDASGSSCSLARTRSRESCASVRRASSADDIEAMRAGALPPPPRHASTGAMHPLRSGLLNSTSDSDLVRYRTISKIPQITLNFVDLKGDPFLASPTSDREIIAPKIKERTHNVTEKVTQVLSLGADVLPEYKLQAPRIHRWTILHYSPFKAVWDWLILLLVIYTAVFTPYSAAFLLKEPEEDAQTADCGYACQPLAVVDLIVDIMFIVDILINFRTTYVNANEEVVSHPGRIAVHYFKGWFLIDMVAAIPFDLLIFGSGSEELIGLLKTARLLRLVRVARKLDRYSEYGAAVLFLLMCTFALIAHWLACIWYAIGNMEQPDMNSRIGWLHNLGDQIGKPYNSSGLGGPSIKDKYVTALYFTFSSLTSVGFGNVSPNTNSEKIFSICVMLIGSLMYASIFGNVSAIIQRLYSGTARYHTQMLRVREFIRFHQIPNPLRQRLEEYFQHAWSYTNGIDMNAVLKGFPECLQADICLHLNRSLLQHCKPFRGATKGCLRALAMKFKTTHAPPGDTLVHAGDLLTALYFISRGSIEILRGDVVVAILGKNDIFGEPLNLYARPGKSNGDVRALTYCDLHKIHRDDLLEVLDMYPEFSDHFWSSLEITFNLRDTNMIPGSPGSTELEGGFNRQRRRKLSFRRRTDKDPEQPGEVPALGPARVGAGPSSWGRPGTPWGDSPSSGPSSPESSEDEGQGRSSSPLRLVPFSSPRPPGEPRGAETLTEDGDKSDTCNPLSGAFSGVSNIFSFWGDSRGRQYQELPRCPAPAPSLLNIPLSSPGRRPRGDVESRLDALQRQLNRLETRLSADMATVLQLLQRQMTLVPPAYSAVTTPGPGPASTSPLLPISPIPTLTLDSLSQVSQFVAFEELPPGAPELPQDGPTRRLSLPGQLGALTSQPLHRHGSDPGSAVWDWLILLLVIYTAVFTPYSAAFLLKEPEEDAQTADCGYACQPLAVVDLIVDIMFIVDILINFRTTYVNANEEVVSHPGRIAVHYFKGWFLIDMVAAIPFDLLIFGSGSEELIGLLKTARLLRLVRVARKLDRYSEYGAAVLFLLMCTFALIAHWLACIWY
# Procedure: (§1) Guinea pig ventricular myocytes were isolated using a modification of the procedure described by Mitra R and Morad M., "A Uniform Enzymatic Method for Dissociation of Myocytes from Hearts and Stomachs of Nertilorates", Am. J. Physiol. […] Excised hearts were perfused through the aorta (retrograde fashion) at a rate of 10 ml/min with oxygenated, warmed (37° C.) solutions described below. […] The head was then perfused with the same nominally Ca^2+ -free solution containing 150 units/ml Type II collagenase (Worthington) and 0.5 units/ml Type XIV protease (Sigma) for 8 minutes. This perfusate was followed by a Tyrode's solution containing 0.2 mM CaCl2 (without enzymes) for 5 minutes. The digested ventricles were cut into small pieces and gently shaken until cells were visibly dispersed. The cells were stored at room temperature until use, within 8 hours after isolation.
# (§2) The suction microelectrode technique described by Giles, W. R. and Shibata, E. F., "Voltage clamp of bull-frog cardiac pacemaker cells: a quantitative, analysis of potassium currents". J. Physiol. […] Microelectrodes were made by using a two stage puller from square bore (1.0 mm o.d.) borosilicate capillary tubing. […] After establishing whole-cell recording mode, negative pressure was maintained on the pipette using a 1 ml gas-tight syringe attached via air tight tubing to the suction port of the microelectrode holder. This minimized dialysis of the cell with the pipette solution.
# (§3) To record K^+ currents, the cells were bathed in a Ca^2+ -free Tyrode's :solution containing […] nisoldipine. […] A List EPC-7 clamp amplifier was used to voltage clamp the isolated cells. […] A variety of voltage pulse protocols were used to measure Ca^2+ current and three types of K^+ currents: inward rectifier (IK1), rapidly activating delayed rectifier (IKr) and the slowly activating delayed rectifier (IKs). Sanguinetti M. C. and Jurkiewicz, N. K., "Two components of cardiac delayed rectifier K^+ current: Differential sensitivity to block by Class III antiarrhythmic agents". […] Data was analyzed as % block from control membrane currents.
# (§4) Nisoldipins was prepared as a 4 mM stock solution in polyethylne glycol 200. Compounds tested in this series were prepared as 10 mM stock solutions in polyethylene glycol 400 or dimethyl sulfoxide.
# [2] = biological target: T2, IKs (slowly activating delayed rectifier K+ current) (Cavia porcellus, UniProt O70344); assay: cell-based; format: cell-based, guinea pig
# T2 construct: Guinea pig ventricular myocytes were isolated; endogenous in cells; host or cells: isolated guinea pig ventricular myocytes
# Procedure: Current amplitude is measured as the difference from the initial instantaneous current level following the capacitance discharge after changing the transmembrane voltage from -50 mV to +50 mV, to the current level at the end of the 1 second voltage step. Normally, an increase in the current amplitude occurs as a function of time and voltage during depolarization of the cardiac cell membrane and this increasing current has been defined as the delayed rectifier K^+ current (IK). […] IKs current occurs as a consequence of time- and voltage-dependent opening of ionic channels or pores in the cardiac cell membrane that allow the relatively selective flow of potassium ions (K^+) from the inside to the outside of the cell, that is, down the voltage and concentration gradient for K^+ ions that is inherent in cardiac cells. Thus, block of the IKs current ultimately reflects block of certain ion channels or pores in the cardiac cell membrane. However, the single pores or channels thought to underlie the IKs current have yet to be measured or identified at the single channel level.
# as §1, §2, §3, §4
Structure (SMILES),IC50 [1] [µM],effect on IKr ([1]; 1 μM),IC50 [2] [µM],block of IKs ([2]; 5 μM),selective block of IKs ([2]; selective: 50% block of IKs at 1 μM or less and at least 10 fold lower than for IKr and/or IK1)
"Cc1cccc(NC(=O)N[C@@H]2N=C(c3ccccc3)c3ccccc3N(C)C2=O)c1 [Compound 4, (R)-N-(2,3-dihydro-1-methyl-2-oxo-5-phenyl-1H-1,4-benzodiazepin-3-yl)-N'-(3-methylphenyl)urea]",~5,Little or no effect,0.215,Complete block,–
"CN1C(=O)[C@H](NC(=O)/C=C/c2ccc(Cl)cc2Cl)N=C(c2ccccc2)c2ccccc21 [Example 26, E-(+)-N-[(3R)-2,3-Dihydro-1-methyl-2-oxo-5-phenyl-1H-1,4-benzo-diazepin-3-yl]-3-(2,4-dichlorophenyl)-2-propenamide]",–,–,–,–,selective blocker of IKs
